In PubChem BioAssay AID330 (DTP/NCI, 2004) one finds T/C data, which are given here for 24 molecules.

“And” between values parts separate entries of the source, which are not always exact repeats. Equal entries are not always repeated. Toxic doses and inconclusive results are not listed.

This test has as its system P388 leukemia ip, CD2F1 mice, survival T/C. The test is described as follows: NCI In Vivo Anticancer Drug Screen. Data for tumor model P388 Leukemia (intraperitoneal) in CD2F1 (CDF1) mice. The note with it: endpoint: median survival time, higher = longer survival. An outline of the steps:
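Mice carrying the transplanted tumor received test compound or vehicle. Survival was recorded in each group, and the value is the treated-group measurement divided by that of the vehicle-treated control group.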

[1] abbreviates: dose: 50.0 mg/kg/injection, schedule: Q01DX005 (ip), vehicle: saline with Tween-80.
Where [2] appears, read: dose: 100.0 mg/kg/injection, schedule: Q01DX005 (ip), vehicle: saline with Tween-80.
The mark [3] stands for this setting: dose: 200.0 mg/kg/injection, schedule: Q01DX005 (ip), vehicle: saline with Tween-80.
Setting [4] is: dose: 25.0 mg/kg/injection, schedule: Q01DX005 (ip), vehicle: saline.
Where [5] appears, read: dose: 50.0 mg/kg/injection, schedule: Q01DX005 (ip), vehicle: saline.
Setting [6] is: dose: 12.5 mg/kg/injection, schedule: Q01DX005 (ip), vehicle: saline with Tween-80.
Where [7] appears, read: dose: 25.0 mg/kg/injection, schedule: Q01DX005 (ip), vehicle: saline with Tween-80.
The mark [8] stands for this setting: dose: 100.0 mg/kg/injection, schedule: Q01DX001 (ip), vehicle: saline with Tween-80.
The mark [9] stands for this setting: dose: 200.0 mg/kg/injection, schedule: Q01DX001 (ip), vehicle: saline with Tween-80.
The mark [10] stands for this setting: dose: 400.0 mg/kg/injection, schedule: Q01DX001 (ip), vehicle: saline with Tween-80.
[11] abbreviates: dose: 50.0 mg/kg/injection, schedule: Q01DX009 (ip), vehicle: Klucel (hydroxypropylcellulose) (HPC).
The mark [12] stands for this setting: dose: 100.0 mg/kg/injection, schedule: Q01DX009 (ip), vehicle: Klucel (hydroxypropylcellulose) (HPC).
Setting [13] is: dose: 200.0 mg/kg/injection, schedule: Q01DX009 (ip), vehicle: Klucel (hydroxypropylcellulose) (HPC).
The mark [14] stands for this setting: dose: 50.0 mg/kg/injection, schedule: Q01DX009 (ip), vehicle: saline with Tween-80.
Where [15] appears, read: dose: 100.0 mg/kg/injection, schedule: Q01DX009 (ip), vehicle: saline with Tween-80.
[16] abbreviates: dose: 200.0 mg/kg/injection, schedule: Q01DX009 (ip), vehicle: saline with Tween-80.

On to `COc1ccc2c3c(cnc2c1)C(=O)CCC3`, for which the T/C under setting [1] is 104 % of control, the T/C under setting [2] was 101 % of control and the T/C under setting [3] is 96 % of control.

Regarding `COc1cc2c(c(OC)c1OC)-c1oncc1CC2`, the T/C was 90 % of control (dose: 100.0 mg/kg/injection, schedule: Q04DX003 (ip), vehicle: Klucel (hydroxypropylcellulose) (HPC)); 92 % of control (dose: 200.0 mg/kg/injection, schedule: Q04DX003 (ip), vehicle: Klucel (hydroxypropylcellulose) (HPC)); 87 % of control (dose: 400.0 mg/kg/injection, schedule: Q04DX003 (ip), vehicle: Klucel (hydroxypropylcellulose) (HPC)).

For the molecule `C[N+](C)([O-])CC1CC=CCC1C[N+](C)(C)[O-]` (stereo not drawn), the T/C under setting [4] was 99 % of control; the T/C under setting [5] was 106 % of control; the T/C (dose: 100.0 mg/kg/injection, schedule: Q01DX005 (ip), vehicle: saline) is 91 % of control.

Turning to `CN(Cc1ccccc1)N=NCc1ccccc1`, the T/C is 103 % of control under setting [6], 115 % of control under setting [7] and 154 % of control under setting [1].

Consider `O=C1c2ccccc2C(=O)N1CCCN1CCOCCOCCN(CCCN2C(=O)c3ccccc3C2=O)CCOCC1`, for which the T/C reads like this: (dose: 50.0 mg/kg/injection, schedule: Q01DX005 (ip), vehicle: saline + Tween-80 + alcohol) 105 % of control; (dose: 100.0 mg/kg/injection, schedule: Q01DX005 (ip), vehicle: saline + Tween-80 + alcohol) 97 % of control.

As to `Cc1ccc(N(O)C(=O)c2ccccc2)c(C)c1`, the T/C is 102 % of control and 98 % of control under setting [1]; 92 % of control and 93 % of control under setting [2]; 123 % of control and 98 % of control under setting [3]; 111 % of control (dose: 400.0 mg/kg/injection, schedule: Q01DX005 (ip), vehicle: saline with Tween-80).

Turning to `c1ccc2c(c1)OC1(CCSCC1)O2`, the T/C under setting [8] was 95 % of control, the T/C under setting [9] was 95 % of control and the T/C under setting [10] is 100 % of control.

Turning to `O=C1C2CCc3cnn(-c4ccccc4)c3C2C(=O)N1c1ccccc1` (stereo not drawn), the T/C is, setting by setting: under setting [1], 101 % of control; under setting [2], 99 % of control; under setting [3], 94 % of control.

In the case of `CCOc1ccc(-n2c(=O)c(N=Nc3ccccc3OC)c(O)n(-c3ccccc3Cl)c2=S)cc1`, the T/C reads like this: (dose: 100.0 mg/kg/injection, schedule: Q01DX001 (ip), vehicle: Klucel (hydroxypropylcellulose) (HPC)) 102 % of control; (dose: 200.0 mg/kg/injection, schedule: Q01DX001 (ip), vehicle: Klucel (hydroxypropylcellulose) (HPC)) 101 % of control; (dose: 400.0 mg/kg/injection, schedule: Q01DX001 (ip), vehicle: Klucel (hydroxypropylcellulose) (HPC)) 105 % of control.

`C=C1CCC2(O)C(=C)C(=O)OC2C2C(=C)CCC12` (stereo not drawn): the T/C is, setting by setting: (dose: 4.0 mg/kg/injection, schedule: Q01DX009 (ip), vehicle: Klucel (hydroxypropylcellulose) (HPC)) 96 % of control; (dose: 8.0 mg/kg/injection, schedule: Q01DX009 (ip), vehicle: Klucel (hydroxypropylcellulose) (HPC)) 100 % of control; (dose: 16.0 mg/kg/injection, schedule: Q01DX009 (ip), vehicle: Klucel (hydroxypropylcellulose) (HPC)) 102 % of control; (dose: 32.0 mg/kg/injection, schedule: Q01DX009 (ip), vehicle: Klucel (hydroxypropylcellulose) (HPC)) 110 % of control.

With `Cc1ccc(N=Nc2ccc(N(CCCl)CCCl)cc2C)c(C(=O)O)c1`, the T/C runs as follows: (dose: 12.5 mg/kg/injection, schedule: Q01DX009 (ip), vehicle: saline with Tween-80) 153 % of control and 177 % of control; (dose: 25.0 mg/kg/injection, schedule: Q01DX009 (ip), vehicle: saline with Tween-80) 123 % of control.

Turning to `CCN(CC)CCN1C(=O)c2cccc3cc([N+](=O)[O-])cc(c23)C1=O`, the T/C (dose: 12.5 mg/kg/injection, schedule: Q01DX005 (ip), vehicle: Klucel (hydroxypropylcellulose) (HPC)) is 107 % of control; the T/C (dose: 25.0 mg/kg/injection, schedule: Q01DX005 (ip), vehicle: Klucel (hydroxypropylcellulose) (HPC)) was 124 % of control; the T/C (dose: 50.0 mg/kg/injection, schedule: Q01DX005 (ip), vehicle: Klucel (hydroxypropylcellulose) (HPC)) is 156 % of control; the T/C (dose: 100.0 mg/kg/injection, schedule: Q01DX005 (ip), vehicle: Klucel (hydroxypropylcellulose) (HPC)) is 195 % of control.

With `Cc1cc(NC(=O)c2ccccc2O)n(-c2ccccc2)n1`, the T/C was 97 % of control under setting [8], 100 % of control under setting [9] and 95 % of control under setting [10].

With `CCOC(=O)N1CC2C=CC1C(C(=O)OC)=C2C(=O)OC` (stereo not drawn), the T/C was 109 % of control under setting [11], 113 % of control under setting [12] and 113 % of control under setting [13].

On to `N=[N+]=CC(=O)CC(N)C(=O)O` (stereo not drawn), for which the T/C was 117 % of control (dose: 100.0 mg/kg/injection, schedule: Q01DX009 (ip), vehicle: saline); 92 % of control (dose: 100.0 mg/kg/injection, schedule: Q04DX003 (ip), vehicle: saline); 100 % of control (dose: 200.0 mg/kg/injection, schedule: Q04DX003 (ip), vehicle: saline); 100 % of control (dose: 400.0 mg/kg/injection, schedule: Q04DX003 (ip), vehicle: saline).

For `O=C(O)c1cc(-c2cccc3ccccc23)nc2cc3ccccc3cc12`, the T/C under setting [14] was 106 % of control and 94 % of control; the T/C under setting [15] was 100 % of control; the T/C under setting [16] was 102 % of control; the T/C (dose: 400.0 mg/kg/injection, schedule: Q01DX009 (ip), vehicle: saline with Tween-80) is 118 % of control.

On to `CN=S(=O)(c1ccccc1)C1(C)CC(C)=C(C)CS1=O` (stereo not drawn), for which the T/C (dose: 60.0 mg/kg/injection, schedule: Q01DX005 (ip), vehicle: saline) was 94 % of control; the T/C (dose: 120.0 mg/kg/injection, schedule: Q01DX005 (ip), vehicle: saline) was 97 % of control; the T/C (dose: 240.0 mg/kg/injection, schedule: Q01DX005 (ip), vehicle: saline) was 103 % of control.

In the case of `COc1cc(O)c2c(c1)C(=O)c1cc3c(c(O)c1C2=O)C(O)C(OC)C(C)(O)C3=O` (stereo not drawn), the T/C reads like this: (dose: 6.25 mg/kg/injection, schedule: Q01DX009 (ip), vehicle: Klucel (hydroxypropylcellulose) (HPC)) 95 % of control; (dose: 12.5 mg/kg/injection, schedule: Q01DX009 (ip), vehicle: Klucel (hydroxypropylcellulose) (HPC)) 105 % of control; (dose: 25.0 mg/kg/injection, schedule: Q01DX009 (ip), vehicle: Klucel (hydroxypropylcellulose) (HPC)) 98 % of control; under setting [11], 94 % of control; under setting [12], 95 % of control.

For the molecule `Cc1c(NC(=O)Nc2ccc(F)cc2[N+](=O)[O-])c(=O)n(-c2ccccc2)n1C`, the T/C by setting is: under setting [14], 109 % of control; under setting [15], 112 % of control; under setting [16], 97 % of control.

Consider `COc1cccc(/C=C2/SC(=S)N(Cc3ccco3)C2=O)c1OC`, for which the T/C is, setting by setting: under setting [6], 100 % of control; under setting [7], 90 % of control; under setting [1], 90 % of control and 91 % of control.

For `CCCCN(CCCC)CC(O)c1c(OC)ccc2ccccc12` (stereo not drawn), the T/C is, setting by setting: (dose: 12.5 mg/kg/injection, schedule: Q01DX005 (ip), vehicle: saline) 100 % of control; under setting [4], 98 % of control; under setting [1], 119 % of control; under setting [5], 105 % of control.

As to `COC(=O)c1ccc(SCCC(=O)CNc2nc(N)nc(N)c2[N+](=O)[O-])cc1`, the T/C is 96 % of control under setting [11], 93 % of control under setting [12] and 96 % of control under setting [13].

As for `COc1ccccc1C1=Nc2ccccc2N=C(c2ccccc2O)C1`, the T/C (dose: 60.0 mg/kg/injection, schedule: Q01DX005 (ip), vehicle: saline with Tween-80) is 107 % of control; the T/C (dose: 120.0 mg/kg/injection, schedule: Q01DX005 (ip), vehicle: saline with Tween-80) was 100 % of control; the T/C (dose: 240.0 mg/kg/injection, schedule: Q01DX005 (ip), vehicle: saline with Tween-80) is 90 % of control.

In the case of `CCC(=O)N=c1sc(SCc2ccccc2)nn1C(=O)SC` (tested in a mixture with another compound), the T/C (dose: 60.0 mg/kg/injection, schedule: Q01DX005 (ip), vehicle: Klucel (hydroxypropylcellulose) (HPC)) was 95 % of control; the T/C (dose: 120.0 mg/kg/injection, schedule: Q01DX005 (ip), vehicle: Klucel (hydroxypropylcellulose) (HPC)) was 98 % of control; the T/C (dose: 240.0 mg/kg/injection, schedule: Q01DX005 (ip), vehicle: Klucel (hydroxypropylcellulose) (HPC)) is 90 % of control.
